Assays:
[1] = In vivo delivery experiment of lipid nucleic acid mixture (Example 13); set-up: species or system C57 mice; settings: oral administration, 6 hours; for delivery effect into mouse blood and tissues (heart, spleen, kidney or intestine) compared with POPC: FIG. 117a-146b, 100 μg lipid : 1 nmol sRNA
Experimental: 1. Experiment animals: C57 mice, male, approximately 6 weeks old, 20-24g. Mice were raised in the SPF room of the Animal Center of the Institute of Basic Medical Sciences of Chinese Academy of Medical Sciences. The mice were fasted for 12 hours before intragastric administration.
2. Preparation of the mixture of lipid and small RNA: the prepration was conducted on the basis of a dose of 100 μg lipid: lnmol single stranded small RNA PGY-sRNA-26 per mouse as follows: lnmol of each sRNA was dissolved with 500 μl DEPC water in a glass tube, 100 μg corresponding lipid solution No.33, No.35,No.37, No.42, No.43, No.44, No.45, No.46, No.47, No.48, No.49, No.50, No.51, No.52, No.53, No.54, No.55, No.56, No.57, No.58, No.59, No.60, No.61, No.62, No.65, No.66, No.67, No.68, No.69 or No.70 (lipid chloroform solution with a concentration as shown in Table 1-1) was added, pipetted to mix thoroughly. The solution was heated in water bath at 90° C. for 15 min, naturally cooled down, and was administered via gavage.
1) Tissue sampling and extraction of RNA: 6 hours after gavage in mice, 500 μl of blood was taken from the eyeball, and was added 1.5 ml Trizol Reagent LS to thoroughly mix and lyse. Tissue sampling: the mouse was sarcrified by breaking its neck, and the thoracic and abdominal cavities of the mouse was exposed to remove the heart/whole spleen/two kidneys/intestine (5 cm of upper end), which was immediately added 2 ml Trizol Reagent (purchased from Invitrogen) and homogenized until complete lysis with a tissue homogenizer.
2) Reverse transcription of sRNA to cDNA: Reverse Transcription Kit (High-Capacity cDNA Reverse Transcription Kits, Applied Biosystems, cat. no. 4368813), was used to reverse transcribe the total RNA to cDNA, and the reverse system was as follows: template RNA (150 ng/μL) 10 μL, 10× RT buffer, 2.0 μL, 25× dNTP Mix (100 mM) 0.8 μL, random primers 2.0 μL, the Multi Scribe™ reverse Transcriptase 1.0 RNase inhibitor 1.0 μL, nuclease-free H2O 3.2 μL. After a brief centrifugation, the reaction was loaded in a PCR reactor. The reaction conditions were as follows: (1) 25° C., 10 min; (2) 37° C., 120 min; (3) 85° C., 5 min; (4) 4° C., termination of the reaction. After the reaction, 20 μL RNase-free ddH2O was added to make up the final volume to 40 μL.
LightCycler 480 fluorescence quantitative PCR instrument was used, and the PCR reaction conditions were: 95° C. , 5 min for pre-denaturation, followed by the PCR amplification cycle: (1) 95° C., 10 s; (2) 55° C., 10 s; (3) 72° C., 20 s; a total of 40 cycles; 40° C. for 10 s in the end to cool down. The forward primer and reverse primer of the amplification reaction were designed and synthesized by Beijing Qing Ke New Industrial Biotechnology Co., Ltd. (U6 F primer: GTGCAGGGTCCGAGGT (SEQ ID NO: 24), PGY-sRNA-26F primer: […] (SEQ ID NO: 34), reverse primer miR all rev: GTGCACGCTCCGAGGT (SEQ ID NO: 26)).
3) The relative expression amount was calculated by the 2-ΔCt method.
The data were represented in the form of mean±SEM. The parameter difference between the experimental group and the control group was evaluated by unpaired t test. The data were statistically analyzed by GraphPad Prism software, and P<0.05 was considered statistically significant.

[2] = test system: A549 cell (human lung adenocarcinoma cell); assay: In vitro delivery of lipid nucleic acid mixture, RT-qPCR of intracellular small RNA; type: cell-based; settings: for delivery of HJT-sRNA-m7 double-stranded RNA into A549 cells (real-time PCR): single lipid prepared by boiling or reverse evaporation method, RNA 100 nM, FIGS. 76, 91, 96, 99, 104, 106, 107
Experimental: (§1) 3.1 NCI-N87 cell (gastric cancer cell), MRC-5 cell (lung fibroblast), A549 cell (lung cancer cell) were cultured to logarithmic growth phase, and then plated to a six-well plate at cell density of 1×10^6/2 mL medium/well; MRC-5 cell was cultured in Eagle's MEM medium (MEM, Gibco); A549 cell was cultured in Ham's F-12 medium (HyClone); NCI-N87 cell was cultured in RPMI-1640 medium (HyClone); followed by incubation overnight at 37° C., and the follow-up experiments were performed after the cells were attached to the walls.
(§2) 3.3 After co-incubation with the small RNA for 3 hours, the cells were washed 2-3 times with PBS. The cells were harvested with TRIzol lysis buffer, and the total RNA was extracted. The abundance of small RNA that entered cells was detected by RT-qPCR, and the localization of RNA was detected by fluorescence in situ hybridization; protocols of each detection method were as follows:
(§3) 1) The sRNA was reverse transcribed to cDNA: Reverse Transcription Kit (High-Capacity cDNA Reverse Transcription Kits, Applied Biosystems, cat. No. 4368813) was used to reverse transcribe sRNA into cDNA by stem-loop method, and the reverse transcription system was as follows: RNA template (150 ng/μl) 10 μl, 10×RT buffer, 2.0 μl, 25× dNTP Mix (100 mM) 0.8 μl, U6 RT stem-loop primer 2.0 μl, HJT-sRNA-RT-m7 stem-loop primer 2.0 μl, MultiScribe™ reverse transcriptase 1.0 μl, RNase inhibitor 1.0 μl, nuclease-free H2O 1.2 μl, loaded into a PCR reactor after brief centrifugation, the reaction conditions were as follows: (1) 25° C., 10 min; (2) 37° C., 120 min; (3) 85° C., 5 min; (4) 4° C., termination of the reaction. 20 μl RNase-free ddH2O was added to make up the final volume to 40 μl after the reaction. The stem-loop primer used in the reverse transcription process was synthesized by Beijing Tsingke Biotechnology Co., Ltd.
(§4) 2) Quantitative PCR amplification reaction: the qPCR reaction system has a total volume of 10 μl, containing: 5 μL 2×SYBR Green Master Mix, 0.5 μl forward primer ([…]), 0.5 μl reverse primer (10 μM), 1 μl cDNA by reverse transcription, 3 RNase-free dH2O. LightCycler 480 fluorescence quantitative PCR instrument was used, and the PCR reaction conditions were: 95° C. for 5 min for pre-denaturation, followed by PCR amplification cycle: (1) 95° C., 10 s; (2) 55° C., 10 s; (3) 72° C. , 20 s; a total of 40 cycles; 40° C. for 10 s in the end to cool down. Both the forward and reverse primers of the amplification reaction were designed and synthesized by Beijing Tsingke Biotechnology Co., Ltd.
(§5) 3) The relative expression level was calculated by 2-ΔCt method.
(§6) 100 μl lipid in diethyl ether solution was prepared, and grouped according to the lipid numbers shown in Table 1 (the lipid concentrations are shown in the table below). To the lipid solution was added 20 μl nucleic acid solution (HJT sRNA or siRNA) at the volume ratio of 5:1, and sonicated for after 3 min. The diethyl ether was removed by evaporation at 55° C., and then 100 μl DEPC water was added for hydration to give nucleic acid lipid mixture.
(§7) 100 μL of the nucleic acid solution (HJT sRNA or siRNA) was added to 2-5 μL of the lipid in chloroform (the concentration was shown in Table 1), mixed, and heated at 80-100° C. for 15-30 min to give nucleic acid lipid mixture.
(§8) 3.1.1 MRC-5 cell (pulmonary embryonic fibroblast), A549 cell (human lung adenocarcinoma cell), Caco-2 cell (human colon adenocarcinoma cell) (purchased from the Cell Resource Center of the Institute of Basic Medical Sciences, Chinese Academy of Medical Sciences) were cultured to logarithmic growth phase, then plated into 12-well plates at a cell density of 6×10^5/1 mL medium/well; MRC-5 and Caco-2 cells were cultured in Eagle's MEM medium (MEM, Gibco); A549 cells were cultured in Ham's F-12 medium (HyClone); followed by incubation overnight at 37° C., and the follow-up experiments were performed after the cells were attached to the walls. […]

[3] = test system: MRC-5 cell (lung fibroblast); assay: as above; type: cell-based; settings: single lipid; boiling method; FIGS. 78, 92, 103
Experimental: as §1, §2, §3, §4, §5, §6, §7, §8

[4] = 100 μg lipid : 1 nmol sRNA per mouse, 90° C. 15 min

CCCCCC/C=C\CCCCCCCC(=O)OC[C@H](COP(=O)(O)OCCN(C)C)OC(=O)CCCCCCC/C=C\CCCCCCCC [No. 62, 1-palmitoleoyl-2-oleoyl-sn-glycero-3-phospho-ethanolamine-N,N-dimethyl]
delivery effect into mouse blood and tissues (heart, spleen, kidney or intestine) compared with POPC [1]: significantly better than or equivalent to that of POPC
delivery of small RNA (PGY-sRNA-26) into intestine [1, 4]: delivers small RNA
delivery of HJT-sRNA-m7 double-stranded RNA into A549 cells (real-time PCR) [2]: delivered double-stranded RNA into A549 cells

CC/C=C\C/C=C\C/C=C\CCCCCCCC(=O)OC[C@@H](O)COP(=O)([O-])OCC[N+](C)(C)C [No. 37, (2-{[(2R)-2-hydroxy-3-[(9Z,12Z,15Z)-octadeca-9,12,15-trienoyloxy]propylphosphonato]oxy}ethyl) trimethylazanium]
delivery effect into mouse blood and tissues (heart, spleen, kidney or intestine) compared with POPC [1]: significantly better than or equivalent to that of POPC
delivery of small RNA (PGY-sRNA-26) into intestine [1, 4]: delivers small RNA
delivery of HJT-sRNA-m7 single-stranded RNA into MRC-5 cells (real-time PCR) [3]: delivered single-stranded RNA into A549 and MRC-5 cells
delivery of HJT-sRNA-m7 single-stranded RNA into A549 cells (real-time PCR) ([2]; single lipid, boiling method, FIGS. 78, 92, 103): delivered single-stranded RNA into A549 and MRC-5 cells

CCCC/C=C\CCCCCCCC(=O)O[C@H](COC(=O)CCCCCCCCCCCCCCCCCCC)COP(=O)(O)OCC[N+](C)(C)C [No. 65, 1-eicosanoyl-2-myristoleoyl-sn-glycero-3-phosphocholine]
delivery effect into mouse blood and tissues (heart, spleen, kidney or intestine) compared with POPC [1]: significantly better than or equivalent to that of POPC
delivery of small RNA (PGY-sRNA-26) into intestine [1, 4]: delivers small RNA
delivery of small RNA (PGY-sRNA-26) into kidney [1, 4]: delivers small RNA

CCCCCC/C=C\CCCCCCCC(=O)OC[C@H](COP(=O)(O)OCCN(C)C)OC(=O)CCCCCCC/C=C\CCCCCC [No. 60, 1,2-dipalmitoleoyl-sn-glycero-3-phospho-ethanolamine-N,N-dimethyl]
delivery effect into mouse blood and tissues (heart, spleen, kidney or intestine) compared with POPC [1]: significantly better than or equivalent to that of POPC
delivery of small RNA (PGY-sRNA-26) into intestine [1, 4]: delivers small RNA
delivery of HJT-sRNA-m7 double-stranded RNA into A549 cells (real-time PCR) [2]: delivered double-stranded RNA into A549 cells

Source: US20210100905A1, “APPLICATION OF COMPOUND OR TRADITIONAL CHINESE MEDICINE EXTRACT IN PREPARATION OF NUCLEIC ACID DELIVERY AGENT, AND RELATED PRODUCTS” (INSTITUTE OF BASIC MEDICAL SCIENCES CHINESE ACADEMY OF …, priority 2018, published 2021)
